One sequence from publication PMC11604954 (Nature Communications, 2024) can be followed below.

The test relates to PBMCs from A*02:01 COVID-19 convalescent individuals. It counts as cell-based, human.

For YLQPRTFLL, the ELISpot response frequency is reported as ~ 44% and the “ELISpot: HLA-matched individuals responding / tested” value is recorded as 11 out of 25.
